The results in this text go back to US10017712B2, “Method for producing vitamin E-enriched, especially tocotrienol-enriched, compositions from natural oils” (Evonik Degussa GmbH, priority 2014, dated 2018).

Data set [1] can be described thus: Partition coefficients of individual tocopherols and tocotrienols, palm oil with ethanol or methanol. The class given is physicochemical. As for the experimental part:
Table 3 provides values of the individual partition coefficient values of tocopherol and tocotrienol compounds found in palm oil. The values were measured by contacting palm oil and ethanol (denoted PC Eth in Table 3) and palm oil and methanol (denoted PC Meth in Table 3) at the oil to solvent ratios noted in the table—e.g. PC Eth 1:5 means that one volume of palm oil was contacted with 5 volumes of ethanol.

The nature of data set [2]: Single stage methanol extraction of vegetable oils, partition coefficient. The data set is classed as physicochemical. As for the experimental part:
First methanol was tested for its efficiency in extracting of α-tocopherol and FFA from three vegetable oils. 200-300 ml of oil was mixed with the solvent using a magnetic stirrer at 35° C. The mixture is gravity separated and the oil stayed at the bottom. Partition coefficients of α-tocopherol and FFA were obtained by measuring the concentration of both compounds in the extract and the bottom fraction without evaporation of the solvent. The partition coefficient is calculated as follows: PC=(concentration in the extract)/(concentration in the bottom fraction).

Setting [3] is: PC Meth 1:1 (palm oil:methanol).
Where [4] appears, read: PC Meth 1:2 (palm oil:methanol).
Where [5] appears, read: PC Meth 1:5 (palm oil:methanol).
[6] abbreviates: PC Meth 1:7 (palm oil:methanol).
The mark [7] stands for this setting: PC Meth 1:3 (palm oil:methanol).

Take `Cc1cc(O)cc2c1O[C@](C)(CCC[C@H](C)CCC[C@H](C)CCCC(C)C)CC2` [Delta-tocopherol]: the Partition coefficient in data set [1] (PC Eth 1:1 (palm oil:ethanol)) stood at 0.50; in data set [1] (PC Eth 1:2 (palm oil:ethanol)), 0.47; in data set [1] (PC Eth 1:5 (palm oil:ethanol)) it was 0.53; in data set [1] (PC Eth 1:7 (palm oil:ethanol)) it was 0.29; in data set [1] (setting [3]) it was 0.25; in data set [1] (setting [4]), 0.07. For the same compound, the figures for the Partition coefficient in data set [1] (setting [5]) and in data set [1] (setting [6]) were 0.09 and 0.01, respectively.
As to `CC(C)=CCC/C(C)=C/CC/C(C)=C/CC[C@]1(C)CCc2cc(O)c(C)c(C)c2O1` [Gamma-tocotrienol], the Partition coefficient in data set [1] (PC Eth 1:1 (palm oil:ethanol)) is recorded as 0.72; in data set [1] (PC Eth 1:2 (palm oil:ethanol)) it was 0.81; in data set [1] (PC Eth 1:3 (palm oil:ethanol)), 0.85; in data set [1] (PC Eth 1:5 (palm oil:ethanol)), 0.79; in data set [1] (PC Eth 1:7 (palm oil:ethanol)) it was 0.53; in data set [1] (setting [3]), 1.17. In addition, the Partition coefficient in data set [1] (setting [4]) was determined as 0.64; in data set [1] (setting [7]) it was 0.76; in data set [1] (setting [5]), 0.46; in data set [1] (setting [6]) it was 0.36.
Regarding `Cc1c(C)c2c(c(C)c1O)CC[C@@](C)(CCC[C@H](C)CCC[C@H](C)CCCC(C)C)O2` [α-tocopherol], the “Partition coefficient” value in data set [2] (Palm Oil, Solvent:Oil Ratio 2:1, 35° C.) was 0.15; in data set [2] (Rapeseed Oil, Solvent:Oil Ratio 3:1, 35° C.), 0.39; in data set [2] (Rice Bran Oil, Solvent:Oil Ratio 2:1, 35° C.), 0.20; in data set [1] (PC Eth 1:1 (palm oil:ethanol)), 0.30; in data set [1] (PC Eth 1:2 (palm oil:ethanol)), 0.31; in data set [1] (PC Eth 1:3 (palm oil:ethanol)) it was 0.25. Besides, the Partition coefficient in data set [1] (PC Eth 1:5 (palm oil:ethanol)) is on record as 0.42; in data set [1] (PC Eth 1:7 (palm oil:ethanol)), 0.22; in data set [1] (setting [3]) it was 0.21; in data set [1] (setting [4]) it was 0.15; in data set [1] (setting [7]), 0.21; in data set [1] (setting [5]) it was 0.11. The compound further had a Partition coefficient in data set [1] (setting [6]) of 0.09.
